Experimental findings from patent US12077768B2, “Plants having increased tolerance to herbicides” (BASF AGRO B.V., priority 2013, dated 2024) are described below.

In this assay the test system is mutated PPO sequences (e.g. SEQ ID NOs: 1, 30, 31, 11, 37, and 117) as wildtype or with respective mutations, expressed in leaf discs. Description: Herbicide tolerance of transiently transformed tobacco leaf discs expressing wildtype or mutated PPO: tolerance factors from IC50 of PSII yield inhibition versus empty vector. The format is cell-based, Nicotiana benthamiana.

As for `C#CCN1C(=O)C(F)(F)Oc2cc(F)c(-n3c(=O)n(C)c(=S)n(C)c3=O)cc21` [1,5-dimethyl-6-thioxo-3-(2,2,7-trifluoro-3-oxo-4-(prop-2-ynyl)-3,4-dihydro-2H-benzo[b][1,4]oxazin-6-yl)-1,3,5-triazinane-2,4-dione], the “Tolerance factor (IC50 of PSII yield inhibition, transformed versus empty vector-transformed leaf discs)” value was found to be 28.7.
